Test results from paper PMC5908784, “Extracellular loops 2 and 3 of the calcitonin receptor selectively modify agonist binding and efficacy” (Biochemical Pharmacology, 2018).
Substitutions are numbered along the chain they refer to. Where a SMILES comes first, the peptide text is derived from it. Bridges are numbered along the chain shown (N, C = ends).

How the values were obtained:
Assay in all cases: cAMP accumulation
Type in all cases: cell-based
Settings in all cases: mean ± S.E.M.; for Emax: cAMP maximal response, SEM; for EC50: cAMP, CV1-FlpIn cells, 30 min, IBMX
hCTR G369A = molecular target: T1, hCTR G369A (Homo sapiens, UniProt P30988, G369A)
T1 construct: c-Myc (N); expressed in transfected cells
T1 sequence (P30988 25-474 G369A): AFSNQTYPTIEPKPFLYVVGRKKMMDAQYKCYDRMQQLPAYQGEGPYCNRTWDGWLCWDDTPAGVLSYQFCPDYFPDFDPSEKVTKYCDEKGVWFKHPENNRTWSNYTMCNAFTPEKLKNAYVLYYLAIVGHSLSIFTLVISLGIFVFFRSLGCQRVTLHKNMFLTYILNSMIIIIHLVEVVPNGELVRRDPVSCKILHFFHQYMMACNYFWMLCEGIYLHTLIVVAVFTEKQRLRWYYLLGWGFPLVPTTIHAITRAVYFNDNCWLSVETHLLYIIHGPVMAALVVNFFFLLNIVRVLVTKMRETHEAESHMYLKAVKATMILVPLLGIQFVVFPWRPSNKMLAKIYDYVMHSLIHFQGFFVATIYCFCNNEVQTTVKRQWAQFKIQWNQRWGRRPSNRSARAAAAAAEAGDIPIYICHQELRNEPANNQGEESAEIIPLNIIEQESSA
Outline: (§1)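 Plated cells were incubated overnight and then challenged with rising ligand concentrations for 30 min alongside IBMX. Medium was replaced by absolute ethanol, which was evaporated at room temperature before cAMP determination. Values are normalized to 100 μM forskolin.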

hCTR P363A = molecular target: T2, hCTR P363A (Homo sapiens, UniProt P30988, P363A)
T2 construct: expressed in transfected cells
T2 sequence (P30988 25-474 P363A): T1 sequence (P30988 25-474 G369A) with P339A, A345G
Outline: as §1

hCTR V375A = molecular target: T3, hCTR V375A (Homo sapiens, UniProt P30988, V375A)
T3 construct: c-Myc (N); expressed in transfected cells
T3 sequence (P30988 25-474 V375A): T1 sequence (P30988 25-474 G369A) with A345G, V351A
Outline: as §1

hCTR Y372A = molecular target: T4, hCTR Y372A (Homo sapiens, UniProt P30988, Y372A)
T4 construct: c-Myc (N); expressed in transfected cells
T4 sequence (P30988 25-474 Y372A): T1 sequence (P30988 25-474 G369A) with A345G, Y348A
Outline: as §1

hCTR D373A = molecular target: T5, hCTR D373A (Homo sapiens, UniProt P30988, D373A)
T5 construct: c-Myc (N); expressed in transfected cells
T5 sequence (P30988 25-474 D373A): T1 sequence (P30988 25-474 G369A) with A345G, D349A
Outline: as §1

| EC50 (hCTR G369A) [nM] | EC50 (hCTR P363A) [nM] | EC50 (hCTR V375A) [nM] | EC50 (hCTR Y372A) [nM] | EC50 (hCTR D373A) [nM] | SMILES | Emax (hCTR G369A) [%] | Emax (hCTR P363A) [%] | Emax (hCTR V375A) [%] | Emax (hCTR Y372A) [%] | Emax (hCTR D373A) [%] |
| --- | --- | --- | --- | --- | --- | --- | --- | --- | --- | --- |
| – | – | – | – | – | CC[C@H](C)[C@H](NC(=O)[C@H](C)NC(=O)[C@@H](NC(=O)[C@H](CCC(N)=O)NC(=O)[C@@H]1CCCN1C(=O)[C@H](Cc1ccccc1)NC(=O)[C@@H](NC(=O)[C@H](Cc1c[nH]cn1)NC(=O)[C@H](Cc1ccccc1)NC(=O)[C@H](CCCCN)NC(=O)[C@H](CC(N)=O)NC(=O)[C@H](Cc1ccccc1)NC(=O)[C@H](CC(=O)O)NC(=O)[C@H](CCC(N)=O)NC(=O)[C@@H](NC(=O)[C@H](Cc1ccc(O)cc1)NC(=O)[C@@H](NC(=O)CNC(=O)[C@H](CC(C)C)NC(=O)[C@H](CCSC)NC(=O)[C@@H]1CSSC[C@H](N)C(=O)NCC(=O)N[C@@H](CC(N)=O)C(=O)N[C@@H](CC(C)C)C(=O)N[C@@H](CO)C(=O)N[C@@H]([C@@H](C)O)C(=O)N1)[C@@H](C)O)[C@@H](C)O)[C@@H](C)O)[C@@H](C)O)C(=O)NCC(=O)N[C@H](C(=O)NCC(=O)N[C@@H](C)C(=O)N1CCC[C@H]1C(N)=O)C(C)C [hCT] | 129 ± 9 | 111 ± 5 | 122 ± 7 | 149 ± 12 | 142 ± 8 |
| 24.5 | 38.9 | 20.4 | 123 | 11.2 | CC(C)C[C@H](NC(=O)CNC(=O)[C@H](C)NC(=O)[C@H](CC(C)C)NC(=O)[C@H](CCCNC(=N)N)NC(=O)[C@H](Cc1cnc[nH]1)NC(=O)[C@@H](NC(=O)[C@@H](NC(=O)[C@@H]1CSSC[C@H](NC(=O)[C@H](C)N)C(=O)N[C@@H](CC(=O)O)C(=O)N[C@@H]([C@@H](C)O)C(=O)N[C@@H](C)C(=O)N[C@@H]([C@@H](C)O)C(=O)N1)C(C)C)[C@@H](C)O)C(=O)N[C@@H](CC(C)C)C(=O)N[C@@H](CO)C(=O)N[C@@H](CCCNC(=N)N)C(=O)N[C@@H](CO)C(=O)NCC(=O)NCC(=O)N[C@H](C(=O)N[C@H](C(=O)N[C@@H](CCCCN)C(=O)N[C@@H](CC(N)=O)C(=O)N[C@@H](CC(N)=O)C(=O)N[C@@H](Cc1ccccc1)C(=O)N[C@H](C(=O)N1CCC[C@H]1C(=O)N[C@H](C(=O)N[C@@H](CC(N)=O)C(=O)N[C@H](C(=O)NCC(=O)N[C@@H](CO)C(=O)N[C@@H](CCCCN)C(=O)N[C@@H](C)C(=O)N[C@@H](Cc1ccccc1)C(N)=O)C(C)C)[C@@H](C)O)C(C)C)C(C)C)C(C)C [hαCGRP] | 131 ± 20 | 38 ± 7 | 114 ± 17 | 36 ± 8 | 34 ± 5 |
| 0.204 | 0.389 | 0.0316 | 1.15 | 0.389 | CSCC[C@H](NC(=O)CNC(=O)[C@H](CO)NC(=O)[C@H](Cc1ccccc1)NC(=O)[C@H](CCCNC(=N)N)NC(=O)[C@H](Cc1c[nH]cn1)NC(=O)[C@H](Cc1ccccc1)NC(=O)[C@H](CC(N)=O)NC(=O)[C@H](CC(N)=O)NC(=O)[C@H](CC(C)C)NC(=O)[C@H](CC(N)=O)NC(=O)[C@H](CCCNC(=N)N)NC(=O)[C@H](Cc1c[nH]c2ccccc12)NC(=O)[C@H](Cc1ccc(O)cc1)NC(=O)[C@H](C)NC(=O)[C@H](CO)NC(=O)[C@H](CC(C)C)NC(=O)[C@@H](NC(=O)[C@@H]1CSSC[C@H](N)C(=O)N[C@@H](CO)C(=O)N[C@@H](CC(N)=O)C(=O)N[C@@H](CC(C)C)C(=O)N[C@@H](CO)C(=O)N[C@@H]([C@@H](C)O)C(=O)N1)C(C)C)C(=O)NCC(=O)N[C@@H](Cc1ccccc1)C(=O)NCC(=O)N1CCC[C@H]1C(=O)N[C@@H](CCC(=O)O)C(=O)N[C@H](C(=O)N1CCC[C@H]1C(N)=O)[C@@H](C)O [pCT] (H-CSNLSTCVLSAYWRNLNNFHRFSGMGFGPETP-NH2; disulfide 1-7) | 89 ± 7 | 148 ± 15 | 151 ± 8 | 137 ± 13 | 158 ± 9 |
| – | – | – | – | – | CC(C)C[C@H](NC(=O)[C@H](CC(N)=O)NC(=O)[C@H](CC(N)=O)NC(=O)[C@H](CO)NC(=O)[C@H](CO)NC(=O)[C@H](CCCNC(=N)N)NC(=O)[C@@H](NC(=O)[C@H](CC(C)C)NC(=O)[C@H](Cc1ccccc1)NC(=O)[C@H](CC(N)=O)NC(=O)[C@H](C)NC(=O)[C@H](CC(C)C)NC(=O)[C@H](CCCNC(=N)N)NC(=O)[C@H](CCC(N)=O)NC(=O)[C@@H](NC(=O)[C@H](C)NC(=O)[C@@H]1CSSC[C@H](NC(=O)[C@@H](N)CCCCN)C(=O)N[C@@H](CC(N)=O)C(=O)N[C@@H]([C@@H](C)O)C(=O)N[C@@H](C)C(=O)N[C@@H]([C@@H](C)O)C(=O)N1)[C@@H](C)O)C(C)C)C(=O)NCC(=O)N1CCC[C@H]1C(=O)N[C@H](C(=O)N[C@@H](CC(C)C)C(=O)N1CCC[C@H]1C(=O)N1CCC[C@H]1C(=O)N[C@H](C(=O)N[C@@H](CC(N)=O)C(=O)N[C@H](C(=O)NCC(=O)N[C@@H](CO)C(=O)N[C@@H](CC(N)=O)C(=O)N[C@H](C(=O)N[C@@H](Cc1ccc(O)cc1)C(N)=O)[C@@H](C)O)C(C)C)[C@@H](C)O)C(C)C [rAmy] | 78 ± 6 | 94 ± 20 | 92 ± 9 | 170 ± 26 | 64 ± 16 |
| – | – | – | – | – | CC(C)C[C@H](NC(=O)[C@H](CCCCN)NC(=O)CNC(=O)[C@H](CC(C)C)NC(=O)[C@@H](NC(=O)[C@@H]1CSSC[C@H](N)C(=O)N[C@@H](CO)C(=O)N[C@@H](CC(N)=O)C(=O)N[C@@H](CC(C)C)C(=O)N[C@@H](CO)C(=O)N[C@@H]([C@@H](C)O)C(=O)N1)C(C)C)C(=O)N[C@@H](CO)C(=O)N[C@@H](CCC(N)=O)C(=O)N[C@@H](CCC(=O)O)C(=O)N[C@@H](CC(C)C)C(=O)N[C@@H](Cc1c[nH]cn1)C(=O)N[C@@H](CCCCN)C(=O)N[C@@H](CC(C)C)C(=O)N[C@@H](CCC(N)=O)C(=O)N[C@H](C(=O)N[C@@H](Cc1ccc(O)cc1)C(=O)N1CCC[C@H]1C(=O)N[C@@H](CCCNC(=N)N)C(=O)N[C@H](C(=O)N[C@@H](CC(N)=O)C(=O)N[C@H](C(=O)NCC(=O)N[C@@H](CO)C(=O)NCC(=O)N[C@H](C(=O)N1CCC[C@H]1C(N)=O)[C@@H](C)O)[C@@H](C)O)[C@@H](C)O)[C@@H](C)O [sCT] | 106 ± 8 | 111 ± 9 | 106 ± 5 | 113 ± 10 | 116 ± 8 |
